Data set [1] deals with HCV replication in human liver tissue. Nature of the data set: HCV-infected human liver slice assay (Example F). Format: cell-based. Conditions: for amount of HCV RNA released into the culture medium from 48-72 h: treatment of HCV-infected human liver slices for 72 h. The method, then: Inhibition of HCV replication in human liver tissue was evaluated using the following assay.
Liver from a brain-dead HCV antibody-positive human patient was perfused with ice-cold Viaspan (Dupont Pharmaceutical) preservation solution and received on ice in Viaspan.
Precision-cut liver slices of 200-250 μm thickness and […] diameter were prepared and cultured in Waymouth's cell culture medium (Gibco, Inc.) that was supplemented with 10% fetal bovine serum and 10 mL/L Fungi-Bact at 37° C., and gassed with carbogen (95% O2, 5% CO2) at 0.75 liters/min. Tissue slices were maintained in culture for 72 h. Cell culture medium containing test compound in solution was changed on a daily basis.
At appropriate times of liver slice incubation, liver slices and medium were collected for analysis of HCV RNA (tissue and medium) and nucleotide levels (NTP). All collected media and tissue slices were maintained in liquid N2 until analysis.
Medium and tissue samples were analyzed for HCV RNA levels according to published procedures (Bonacini et. al., 1999) which utilize an automated, multicycle, polymerase chain reaction (PCR)-based technique. This assay has a lower limit of detection for HCV RNA of 100 viral copies/ml.
Frozen liver slices were disrupted by using a combination of ultrasound probe sonication, Branson Sonifier 450 (Branson Ultrasonics, Danbury, Conn.) and homogenization using a Dounce conical pestle in 200 μls of 10% (v/v) perchloric acid (PCA). After a […] centrifugation at 2,500×g, the supernatants were neutralized using 3 M KOH/3 M KHCO3 and mixed thoroughly. The neutralized samples were centrifuged at 2,500 g for 5 min and NTP levels were determined by ion exchange phase HPLC (Hewlett Packard 1050) using a Whatman Partisil 5 SAX (5 μm, 4.6×250 mm) column. […] Nucleoside triphosphates were eluted from the column using a linear gradient to 80% 1 M ammonium phosphate pH 3.5/6% ethanol buffer, at a flow rate of 1.25 mL/min and detected by UV absorbance (254 nm).

Data set [2] in a line: Liver targeting of 2′-C-methylcytidine and its prodrugs in rats: liver NTP vs plasma nucleoside (Example K). It is filed as in vivo. The following applies: male Sprague-Dawley rats, intraperitoneal, 5 mg/kg nucleoside equivalents. How it is done:
The liver specificity of the prodrug compounds 35.3, 35.4, and 35.5 was compared relative to the parent nucleoside, 2′-C-methylcytidine, by measuring the generation of NTP in the liver compared to nucleoside in the plasma.
Prodrug compounds 35.3, 35.4, 35.5, 38.3, 38.6, 40.1, 40.6, 40.7, 40.8, 41.2 or 2′-C-methylcytidine were administered intraperitoneally to male Sprague-Dawley rats at a dose of 5 mg/kg based on nucleoside equivalents (5 mg/kg 2′-C-methylcytidine and ˜7-10 mg/kg prodrug compounds). Plasma concentrations of 2′-C-methylcytidine and the liver concentrations of the 5′-triphosphate of 2′-C-methylcytidine were measured by LC-MS using the standard ion-pairing chromatography methods for nucleoside and triphospliate, respectively, as described in Example E. Conventional SAX HPLC-UV could not differentiate between endogenous CTP and 2′-C-methylcytidine triphosphate.

Structures can show the parent of a compound that is named as a salt.

One may read the melting point as the temperature of the solid-liquid transition. A word on the Cmax: it is the maximum level reached in the sampled fluid or tissue.

The compound `C[C@@]1(O)[C@H](O)[C@@H](COP2(=O)OCC[C@H](c3cccc(Cl)c3)O2)O[C@H]1n1ccc2c(=O)[nH]c(N)nc21` (stereo partly drawn) (as salt: trifluoroacetic acid salt) [Compound 17.10, 2-amino-7-(cis-5′-O-[4-(R)-(3-chlorophenyl)-2-oxo-1,3,2-dioxaphosphorinan-2-yl]-2′-C methyl-beta-D-ribofuranosyl)-7H-pyrrolo[2,3-d]pyrimidin-4(3H)-one trifluoroacetic acid salt] gave a melting point of 170 to 180 °C.

As for `C[C@@]1(O)[C@H](O)[C@@H](CO[P@]2(=O)OCC[C@H](c3cccc(Cl)c3)O2)O[C@H]1n1cnc2c(=O)[nH]c(N)nc21` (relative stereo) [Compound 19, cis-5′-O-[4-(3-Chlorophenyl)-2-oxo-1,3,2-dioxaphosphorinan-2-yl]-2′-C-methylguanosine], in data set [1] (HCV-infected human liver slices, 72 h), the “lowering viral RNA production in the culture medium, prodrug compared with nucleoside 2′-C-methylguanosine” value is on record as “more effective”. In addition, in data set [1], the “amount of HCV RNA released into the culture medium from 48-72 h” value was “decreased”.

As to `CC(C)[C@H](N)C(=O)O[C@@H]1[C@@H](CO[P@@]2(=O)OCC[C@@H](c3cccc(Cl)c3)O2)O[C@@H](n2ccc(N)nc2=O)[C@]1(C)O.O=C(O)C(F)(F)F` (relative stereo) [Compound 41.2, cis-5′-O-[4-(S)-(3-Chlorophenyl)-2-oxo-1,2,3-dioxaphosphorin-2-yl]-2′-C-methyl-3′-(L-valinyl)cytidine trifluoroacetic acid salt], the “Liver Targeting Index (Liver/Plasma)” value in data set [2] is listed as 302. Further, the peak concentration (Cmax) in data set [2] (2′-C-methylcytidine) amounted to 340 nM. In addition, in data set [2] (liver targeting over free nucleoside), the “Prodrug Improvement (Fold)” value is 4081 Fold.

Regarding `C[C@@]1(O)[C@H](O)[C@@H](CO)O[C@H]1n1cnc2c(=O)[nH]c(N)nc21` [2′-C-methylguanosine, reference compound], the “amount of HCV RNA released into the culture medium from 48-72 h” value in data set [1] is given as “decreased”.

In turn, `C[C@@]1(O)[C@H](O)[C@@H](COP2(=O)OCC[C@@H](c3ccncc3)O2)O[C@H]1n1ccc2c(=O)[nH]c(N)nc21` (stereo partly drawn) [Compound 17.13, 2-amino-7-(cis-5′-O-[4-(S)-(pyridin-4-yl)-2-oxo-1,3,2-dioxaphosphorinan-2-yl]-2′-C methyl-beta-D-ribofuranosyl)-7H-pyrrolo[2,3-d]pyrimidin-4(3H)-one] came in with a melting point of 138 to 141 °C.

On to `C[C@@]1(O)[C@H](O)[C@@H](COP2(=O)OCC[C@H](c3ccccc3)O2)O[C@H]1n1ccc2c(=O)[nH]c(N)nc21` (stereo partly drawn) [Compound 17.16, 2-amino-7-(cis-5′-O-[4-(R)-phenyl-2-oxo-1,3,2-dioxaphosphorinan-2-yl]-2′-C methyl-beta-D-ribofuranosyl)-7H-pyrrolo[2,3-d]pyrimidin-4(3)-one], for which the melting point is 128 to 133 °C.

In turn, `CC(=O)O[C@@H]1[C@@H](CO[P@@]2(=O)OCCC(c3ccncc3)O2)O[C@@H](n2ccc3c(N)ncnc32)[C@]1(C)O` (some centres unmarked) [Compound 22.1] came in with a melting point of 182 to 185 °C.

`CC(=O)O[C@@H]1[C@@H](CO[P@@]2(=O)OCC[C@@H](c3cccc(Cl)c3)O2)O[C@@H](n2ccc3c(N)ncnc32)[C@]1(C)O` [Compound 22.2, 4-amino-7-(3′-O-acetyl-cis-5′-O-[4-(S)-(3-chlorophenyl)-2-oxo-1,3,2-dioxaphosphorinan-2-yl]-2′-C-methyl-beta-D-ribofuranosyl)-7H-pyrrolo[2,3-d]pyrimidine] yielded a melting point of 90 to 93 °C.

These data come from US20090118223A1, “Novel 2'-c-methyl and 4'c-methyl nucleoside derivatives” (priority 2005, published 2009).
